Data published in patent US20260193264A1, “BENZOYPARAZINE PYRAZINES AND THEIR USES” (FOGHORN THERAPEUTICS INC., priority 2022, published 2026).

Key:
[1] = biological target: T1, HiBit-BRG1 fusion protein in stable HeLa cell line expressing HiBit-BRG1 and LgBit (Homo sapiens, UniProt P51532); assay: HiBiT-BRG1 cell-based degradation assay (Nano-Glo HiBiT, 24 h); conditions: HeLa HiBit-BRG1/LgBit cells; for Dmax: top dose 30 μM, read-out: BRG1 HiBit Degradation Maximum (%); for DC50: read-out: BRMG1 HiBit Degradation IC50
T1 construct: expressed in transfected cells
Method in brief: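 Stable HeLa line co-expressing HiBiT-BRG1 and LgBiT, compound-treated 24 h; luminescence read after Nano-Glo HiBiT lytic reagent. % degradation normalised between DMSO (high control) and 2 μM reference BRM/BRG1 degrader (low control).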

[2] = biological target: T2, HiBiT-BRM fusion protein in stable HeLa cell line (Homo sapiens, UniProt P51531); assay: HiBiT-BRM cell-based degradation assay (Nano-Glo HiBiT Lytic Detection, 24 h); design: DC50: scale not given here; conditions: HeLa HiBiT-BRM cells; for DC50: read-out: BRM HiBit Degradation IC50; for BRM HiBit Degradation Maximum (%): top dose 30 μM
T2 construct: expressed in transfected cells
Method in brief: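 Stable HiBiT-BRM HeLa cells treated 24 h with 10-point 3-fold dilutions, top final dose 30 μM, in duplicate. Luminescence read after lytic LgBiT reagent. Percent degradation was normalised to DMSO (high control) and 2 μM reference BRM/BRG1 degrader (low control).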

T1 sequence (P51532 whole entry, the tested form may be a part): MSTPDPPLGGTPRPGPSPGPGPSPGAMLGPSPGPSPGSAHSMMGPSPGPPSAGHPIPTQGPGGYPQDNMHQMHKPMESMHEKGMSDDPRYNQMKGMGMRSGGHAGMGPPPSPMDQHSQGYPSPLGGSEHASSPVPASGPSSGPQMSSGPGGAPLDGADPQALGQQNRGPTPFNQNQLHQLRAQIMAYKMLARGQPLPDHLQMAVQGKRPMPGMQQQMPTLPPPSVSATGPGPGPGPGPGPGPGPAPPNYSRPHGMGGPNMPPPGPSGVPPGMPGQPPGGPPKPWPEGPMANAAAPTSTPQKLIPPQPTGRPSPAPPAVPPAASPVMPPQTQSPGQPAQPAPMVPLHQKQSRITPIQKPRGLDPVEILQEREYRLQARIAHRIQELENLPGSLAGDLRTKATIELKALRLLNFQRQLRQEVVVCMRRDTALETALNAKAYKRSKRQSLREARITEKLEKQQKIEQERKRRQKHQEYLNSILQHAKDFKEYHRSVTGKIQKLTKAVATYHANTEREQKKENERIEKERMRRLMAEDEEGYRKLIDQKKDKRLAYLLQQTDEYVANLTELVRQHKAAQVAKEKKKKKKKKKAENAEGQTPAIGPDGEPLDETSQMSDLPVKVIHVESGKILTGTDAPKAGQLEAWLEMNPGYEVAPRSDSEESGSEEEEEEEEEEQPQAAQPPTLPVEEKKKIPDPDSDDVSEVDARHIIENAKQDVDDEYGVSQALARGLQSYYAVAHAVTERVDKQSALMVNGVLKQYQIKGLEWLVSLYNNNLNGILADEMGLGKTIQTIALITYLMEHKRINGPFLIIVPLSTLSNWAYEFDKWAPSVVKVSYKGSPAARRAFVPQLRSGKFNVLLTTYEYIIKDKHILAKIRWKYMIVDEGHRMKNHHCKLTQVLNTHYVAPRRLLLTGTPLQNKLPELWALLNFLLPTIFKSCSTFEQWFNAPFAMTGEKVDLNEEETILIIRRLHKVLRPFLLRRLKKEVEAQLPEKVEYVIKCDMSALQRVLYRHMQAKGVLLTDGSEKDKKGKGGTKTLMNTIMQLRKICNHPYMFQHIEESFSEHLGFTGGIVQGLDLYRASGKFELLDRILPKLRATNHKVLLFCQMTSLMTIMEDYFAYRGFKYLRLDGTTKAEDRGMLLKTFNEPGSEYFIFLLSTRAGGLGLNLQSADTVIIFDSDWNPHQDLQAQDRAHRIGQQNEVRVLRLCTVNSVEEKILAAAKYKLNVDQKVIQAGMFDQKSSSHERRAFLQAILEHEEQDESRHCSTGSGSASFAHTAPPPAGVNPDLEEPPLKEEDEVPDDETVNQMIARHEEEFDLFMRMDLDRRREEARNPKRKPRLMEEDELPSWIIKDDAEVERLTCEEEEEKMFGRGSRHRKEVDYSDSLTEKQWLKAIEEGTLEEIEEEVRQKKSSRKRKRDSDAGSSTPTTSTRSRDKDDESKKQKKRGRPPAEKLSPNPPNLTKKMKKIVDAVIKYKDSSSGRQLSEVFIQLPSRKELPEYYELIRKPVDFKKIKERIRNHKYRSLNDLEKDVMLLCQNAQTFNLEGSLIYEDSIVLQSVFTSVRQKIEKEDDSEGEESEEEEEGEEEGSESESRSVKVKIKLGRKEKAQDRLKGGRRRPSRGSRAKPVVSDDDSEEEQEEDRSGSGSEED
T2 sequence (P51531 whole entry, the tested form may be a part): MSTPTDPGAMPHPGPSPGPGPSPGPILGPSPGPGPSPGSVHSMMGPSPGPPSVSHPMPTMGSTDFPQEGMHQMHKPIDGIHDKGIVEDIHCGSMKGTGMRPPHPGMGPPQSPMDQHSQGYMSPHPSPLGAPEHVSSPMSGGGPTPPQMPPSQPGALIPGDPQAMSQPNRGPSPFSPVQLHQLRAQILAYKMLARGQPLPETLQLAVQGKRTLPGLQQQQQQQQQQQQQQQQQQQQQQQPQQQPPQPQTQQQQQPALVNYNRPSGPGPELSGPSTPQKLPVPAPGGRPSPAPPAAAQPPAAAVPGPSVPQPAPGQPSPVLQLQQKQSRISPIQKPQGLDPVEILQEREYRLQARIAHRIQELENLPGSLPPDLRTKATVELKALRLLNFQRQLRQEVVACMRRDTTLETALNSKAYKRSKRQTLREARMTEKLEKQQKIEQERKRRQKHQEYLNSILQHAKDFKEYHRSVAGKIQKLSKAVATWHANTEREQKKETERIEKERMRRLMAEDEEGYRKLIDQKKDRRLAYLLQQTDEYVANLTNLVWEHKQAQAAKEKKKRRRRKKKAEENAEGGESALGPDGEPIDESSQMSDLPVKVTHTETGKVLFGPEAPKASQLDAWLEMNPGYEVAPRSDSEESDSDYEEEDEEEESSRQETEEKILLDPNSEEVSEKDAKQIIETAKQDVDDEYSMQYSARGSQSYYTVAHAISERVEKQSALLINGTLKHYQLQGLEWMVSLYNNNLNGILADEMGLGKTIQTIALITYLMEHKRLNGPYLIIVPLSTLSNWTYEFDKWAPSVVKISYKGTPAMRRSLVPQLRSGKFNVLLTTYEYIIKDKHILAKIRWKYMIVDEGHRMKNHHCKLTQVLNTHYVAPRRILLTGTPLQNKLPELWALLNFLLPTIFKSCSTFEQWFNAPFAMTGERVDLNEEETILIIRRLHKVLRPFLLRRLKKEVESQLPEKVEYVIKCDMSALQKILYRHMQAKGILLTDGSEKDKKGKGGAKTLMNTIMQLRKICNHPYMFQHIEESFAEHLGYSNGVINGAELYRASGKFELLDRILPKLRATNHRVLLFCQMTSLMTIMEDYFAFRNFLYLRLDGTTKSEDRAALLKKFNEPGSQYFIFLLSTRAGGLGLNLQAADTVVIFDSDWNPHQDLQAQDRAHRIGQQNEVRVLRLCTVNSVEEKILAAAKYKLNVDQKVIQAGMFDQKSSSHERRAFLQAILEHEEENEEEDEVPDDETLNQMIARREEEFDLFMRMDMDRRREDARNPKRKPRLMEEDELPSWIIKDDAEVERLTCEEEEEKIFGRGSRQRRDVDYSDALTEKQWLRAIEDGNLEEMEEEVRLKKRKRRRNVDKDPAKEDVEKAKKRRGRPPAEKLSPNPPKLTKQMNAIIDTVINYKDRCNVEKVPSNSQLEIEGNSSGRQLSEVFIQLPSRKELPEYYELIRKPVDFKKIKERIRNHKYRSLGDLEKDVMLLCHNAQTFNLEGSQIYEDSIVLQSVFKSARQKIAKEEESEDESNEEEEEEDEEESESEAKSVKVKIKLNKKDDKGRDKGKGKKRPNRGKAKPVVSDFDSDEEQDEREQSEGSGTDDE

Compound | Dmax [1] | DC50 [2] | BRM HiBit Degradation Maximum (%) [2] | DC50 [1]
Cc1ncsc1-c1ccc([C@H](C)NC(=O)[C@@H]2C[C@@H](O)CN2C(=O)[C@H](C(C)C)n2cc(N3CC4(CN(c5ccc6nnc(-c7ccccc7O)cc6c5)CCO4)C3)nn2)cc1 [Compound 189, (2S,4R)-4-hydroxy-1-((S)-2-(4-(8-(3-(2-hydroxyphenyl)cinnolin-6-yl)-5-oxa-2,8-diazaspiro[3.5]nonan-2-yl)-1H-1,2,3-triazol-1-yl)-3-methylbutanoyl)-N-((S)-1-(4-(4-methylthiazol-5-yl)phenyl)ethyl)pyrrolidine-2-carboxamide] | < 50% | < 10 nM | A (“A” indicates maximum degradation ≥75%) | –
Cc1ncsc1-c1ccc([C@H](C)NC(=O)[C@@H]2C[C@@H](O)CN2C(=O)C(C(C)C)n2cc(N3CCCC4(CCN(c5ccc6nnc(-c7ccccc7O)cc6c5)CC4)C3)nn2)cc1 (some centres unmarked) [Compound 275] | > 75% | < 10 nM | A (“A” indicates maximum degradation ≥75%) | > 10 nM
Cc1ncsc1-c1ccc([C@H](C)NC(=O)[C@@H]2C[C@@H](O)CN2C(=O)[C@@H](c2cc(N3CCC4(CN(c5ccc6cc(-c7ccccc7O)nnc6c5)C4)C3)no2)C(C)C)cc1 [Compound 130, (2S,4R)-4-hydroxy-1-((R)-2-(3-(2-(3-(2-hydroxyphenyl)cinnolin-7-yl)-2,6-diazaspiro[3.4]octan-6-yl)isoxazol-5-yl)-3-methylbutanoyl)-N-((S)-1-(4-(4-methylthiazol-5-yl)phenyl)ethyl)pyrrolidine-2-carboxamide] | > 75% | < 10 nM | A (“A” indicates maximum degradation ≥75%) | < 10 nM
C#Cc1ccc([C@H](C)NC(=O)[C@@H]2C[C@@H](O)CN2C(=O)[C@@H](c2cc(N3CC4(CN(c5ccc6cc(-c7ccccc7O)nnc6c5)C4)C3)no2)C(C)C)cc1 [Compound 274, (2S,4R)-N-((S)-1-(4-ethynylphenyl)ethyl)-4-hydroxy-1-((R)-2-(3-(6-(3-(2-hydroxyphenyl)cinnolin-7-yl)-2,6-diazaspiro[3.3]heptan-2-yl)isoxazol-5-yl)-3-methylbutanoyl)pyrrolidine-2-carboxamide] | < 50% | < 10 nM | A (“A” indicates maximum degradation ≥75%) | –
Cc1ncsc1-c1ccc([C@H](C)NC(=O)[C@@H]2C[C@@H](O)CN2C(=O)[C@@H](c2cc(N3CCN([C@@H]4CCN(Cc5ccc6nnc(-c7ccccc7O)cc6c5)CC4(F)F)CC3)no2)C(C)C)cc1 [Compound 136, (2S,4R)-1-((R)-2-(3-(4-((R)-3,3-difluoro-1-((3-(2-hydroxyphenyl)cinnolin-6-yl)methyl)piperidin-4-yl)piperazin-1-yl)isoxazol-5-yl)-3-methylbutanoyl)-4-hydroxy-N-((S)-1-(4-(4-methylthiazol-5-yl)phenyl)ethyl)pyrrolidine-2-carboxamide] | > 75% | < 10 nM | A (“A” indicates maximum degradation ≥75%) | < 10 nM
Cc1ncsc1-c1ccc([C@H](C)NC(=O)[C@@H]2C[C@@H](O)CN2C(=O)[C@H](c2cc(N3CC4(CC(c5ccc6cc(-c7ccccc7O)nnc6c5)C4)C3)no2)C(C)C)cc1 [Compound 33] | < 50% | > 100 nM | A (“A” indicates maximum degradation ≥75%) | –
Cc1ncsc1-c1ccc([C@H](C)NC(=O)[C@@H]2C[C@@H](O)CN2C(=O)[C@H](C(C)C)n2cc(-c3ccc4nnc(-c5ccccc5O)cc4c3)nn2)cc1 [Compound 128, (2S,4R)-4-hydroxy-1-((S)-2-(4-(3-(2-hydroxyphenyl)cinnolin-6-yl)-1H-1,2,3-triazol-1-yl)-3-methylbutanoyl)-N—((S)-1-(4-(4-methylthiazol-5-yl)phenyl)ethyl)pyrrolidine-2-carboxamide] | > 75% | < 10 nM | A (“A” indicates maximum degradation ≥75%) | < 10 nM
Cc1ncsc1-c1ccc([C@H](C)NC(=O)[C@@H]2C[C@@H](O)CN2C(=O)[C@H](C(C)C)n2cnc(N3CC4(CN(c5ccc6nnc(-c7ccccc7O)cc6c5)C4)C3)c2)cc1 [Compound 272, (2S,4R)-4-hydroxy-1-((S)-2-(4-(6-(3-(2-hydroxyphenyl)cinnolin-6-yl)-2,6-diazaspiro[3.3]heptan-2-yl)-1H-imidazol-1-yl)-3-methylbutanoyl)-N-((S)-1-(4-(4-methylthiazol-5-yl)phenyl)ethyl)pyrrolidine-2-carboxamide] | < 50% | > 100 nM | A (“A” indicates maximum degradation ≥75%) | –
CC(C)[C@@H](C(=O)N1C[C@H](O)C[C@H]1C(=O)NCc1ccccc1)c1cc(N2CC3(CN(c4ccc5cc(-c6ccccc6O)nnc5c4)C3)C2)no1 [Compound 111, (2S,4R)-N-benzyl-4-hydroxy-1-((R)-2-(3-(6-(3-(2-hydroxyphenyl)cinnolin-7-yl)-2,6-diazaspiro[3.3]heptan-2-yl)isoxazol-5-yl)-3-methylbutanoyl)pyrrolidine-2-carboxamide] | < 50% | < 10 nM | A (“A” indicates maximum degradation ≥75%) | –
Cc1ncsc1-c1ccc([C@H](C)NC(=O)[C@@H]2C[C@@H](O)CN2C(=O)[C@@H](c2cc(C3CC4(C3)CN(c3ccc5nnc(-c6ccccc6O)cc5c3)C4)no2)C(C)C)cc1 (single isomer, unassigned) [Compound 200] | > 75% | < 10 nM | A (“A” indicates maximum degradation ≥75%) | < 10 nM
Cc1ncsc1-c1ccc([C@H](C)NC(=O)[C@@H]2C[C@@H](O)CN2C(=O)[C@@H](c2cc(N3CCC(N4CC(c5ccc6nnc(-c7ccccc7O)cc6c5)C4)CC3)no2)C(C)C)cc1 [Compound 3, (2S,4R)-4-hydroxy-1-((R)-2-(3-(4-(3-(3-(2-hydroxyphenyl)cinnolin-6-yl)azetidin-1-yl)piperidin-1-yl)isoxazol-5-yl)-3-methylbutanoyl)-N-((S)-1-(4-(4-methylthiazol-5-yl)phenyl)ethyl)pyrrolidine-2-carboxamide] | > 75% | < 10 nM | A (“A” indicates maximum degradation ≥75%) | < 10 nM
Cc1ncsc1-c1ccc([C@H](C)NC(=O)[C@@H]2C[C@@H](O)CN2C(=O)[C@@H](c2cc(N3CCC4(CCN(c5ccc6cc(-c7ccccc7O)nnc6c5)CC4)CC3)no2)C(C)C)cc1 [Compound 106, (2S,4R)-4-hydroxy-1-((R)-2-(3-(9-(3-(2-hydroxyphenyl)cinnolin-7-yl)-3,9-diazaspiro [5.5]undecan-3-yl)isoxazol-5-yl)-3-methylbutanoyl)-N-((S)-1-(4-(4-methylthiazol-5-yl)phenyl)ethyl)pyrrolidine-2-carboxamide] | > 75% | < 10 nM | A (“A” indicates maximum degradation ≥75%) | < 10 nM
Cc1ncsc1-c1ccc([C@H](C)NC(=O)[C@@H]2C[C@@H](O)CN2C(=O)[C@@H](c2cc(N3CC4(CN(c5ccc6cc(-c7ccccc7O)nnc6c5)C4)C3)sn2)C(C)C)cc1 [Compound 195, (2S,4R)-4-hydroxy-1-[(2R)-2-(5-{6-[3-(2-hydroxyphenyl)cinnolin-7-yl]-2,6-diazaspiro[3.3]heptan-2-yl}-1,2-thiazol-3-yl)-3-methylbutanoyl]-N-[(1S)-1-[4-(4-methyl-1,3-thiazol-5-yl)phenyl]ethyl]pyrrolidine-2-carboxamide] | > 50% | < 10 nM | A (“A” indicates maximum degradation ≥75%) | –
Cc1ncsc1-c1ccc([C@H](C)NC(=O)[C@@H]2C[C@@H](O)CN2C(=O)[C@H](c2cc(-c3cnc(N4CC(c5ccc6nnc(-c7ccccc7O)cc6c5Cl)C4)nc3)no2)C(C)C)cc1 [Compound 43] | < 50% | > 100 nM | A (“A” indicates maximum degradation ≥75%) | –
Cc1ncsc1-c1ccc([C@H](C)NC(=O)[C@@H]2C[C@@H](O)CN2C(=O)[C@@H](c2cc(N3CCC4(CC[C@@H](c5ccc6cc(-c7ccccc7O)nnc6c5)C4)CC3)no2)C(C)C)cc1 [Compound 93, (2S,4R)-4-hydroxy-1-((R)-2-(3-((R)-2-(3-(2-hydroxyphenyl)cinnolin-7-yl)-8-azaspiro[4.5]decan-8-yl)isoxazol-5-yl)-3-methylbutanoyl)-N-((S)-1-(4-(4-methylthiazol-5-yl)phenyl)ethyl)pyrrolidine-2-carboxamide] | < 50% | < 10 nM | A (“A” indicates maximum degradation ≥75%) | –
Cc1ncsc1-c1ccc([C@H](C)NC(=O)[C@@H]2C[C@@H](O)CN2C(=O)[C@@H](c2cc(N3CC4(C3)CN(c3cc5cc(-c6ccccc6O)nnc5cc3C3CC3)C4)no2)C(C)C)cc1 [Compound 152, (2S,4R)-1-((R)-2-(3-(6-(7-cyclopropyl-3-(2-hydroxyphenyl)cinnolin-6-yl)-2,6-diazaspiro[3.3]heptan-2-yl)isoxazol-5-yl)-3-methylbutanoyl)-4-hydroxy-N-((S)-1-(4-(4-methylthiazol-5-yl)phenyl)ethyl)pyrrolidine-2-carboxamide] | > 75% | < 10 nM | A (“A” indicates maximum degradation ≥75%) | < 10 nM
